Among the data in US20240343704A1, “HALO-SUBSTITUTED AMINO PYRIDINE COMPOUNDS AS INHIBITORS OF THE HAEMATOPOIETIC PROGENITOR KINASE 1 (HPK1)” (priority 2021, published 2024) are IC50 values, retold here.

Some results are limits rather than exact numbers.

This assay has as its target T1, Recombinant (1-346) HPK1 (h) (Homo sapiens, UniProt Q92918).
T1 construct: Recombinant (1-346) HPK1 (h) is incubated with 8 mM MOPS pH 7.0
T1 sequence (Q92918 1-346): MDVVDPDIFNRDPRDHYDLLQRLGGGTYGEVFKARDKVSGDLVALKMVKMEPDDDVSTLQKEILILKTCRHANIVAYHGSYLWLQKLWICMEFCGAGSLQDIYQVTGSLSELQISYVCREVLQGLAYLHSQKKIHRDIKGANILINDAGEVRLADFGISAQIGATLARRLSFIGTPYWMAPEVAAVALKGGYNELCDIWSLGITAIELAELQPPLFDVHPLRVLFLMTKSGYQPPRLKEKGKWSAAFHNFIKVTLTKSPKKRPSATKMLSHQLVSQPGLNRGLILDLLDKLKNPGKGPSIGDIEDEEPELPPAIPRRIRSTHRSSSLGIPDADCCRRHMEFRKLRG
The assay can be described thus: HPK1 Human STE Kinase Enzymatic Radiometric Assay. Particulars: read-out: HPK1 IC50 nM Range*. In kind it is biochemical. How it is done: A stock solution of 10 mM of test compound is prepared in DMSO. The compound plate was prepared by 3-fold and 9-point serial dilutions. […] The reaction is initiated by The addition of the Mg/ATP mix. After incubation for 40 minutes at RT, the reaction is stopped by the addition of phosphoric acid to a concentration of 0.5%.
`Nc1nc(F)c(-c2ccc(N3CCOCC3)c(CN3CCC3)c2)cc1-c1ccc2c(c1)CCNC2=O` [I-549, 6-(2-amino-5-(3-(azetidin-1-ylmethyl)-4-morpholinophenyl)-6-fluoropyridin-3-yl)-3,4-dihydroisoquinolin-1(2H)-one]: the IC50 was in the range of 11 to 100 nM.
Next, `CCN(C)Cc1cc(-c2cc(-c3cc4c(cc3F)C(=O)NCC4)c(N)nc2F)ccc1C1CCOCC1` [I-552, 6-(2-amino-5-(3-((ethyl(methyl)amino)methyl)-4-(tetrahydro-2H-pyran-4-yl)phenyl)-6-fluoropyridin-3-yl)-7-fluoro-3,4-dihydroisoquinolin-1(2H)-one]: 11 to 100 nM; `CCN(CC)Cc1cc(-c2cc(-c3ccc4c(c3)CCNC4=O)c(N)nc2F)ccc1N1CCOCC1` [I-615, 6-(2-amino-5-(3-((diethylamino)methyl)-4-morpholinophenyl)-6-fluoropyridin-3-yl)-3,4-dihydroisoquinolin-1(2H)-one]: 0.1 to 10 nM.
Under `Nc1nc(F)c(-c2ccc(N3CCCCC3)cc2)cc1-c1ccc2c(c1)CCNC2=O` [I-60, 6-(2-amino-6-fluoro-5-(4-(piperidin-1-yl)phenyl)pyridin-3-yl)-3,4-dihydroisoquinolin-1(2H)-one] stands 0.1 to 10 nM; under `Nc1nc(F)c(-c2ccc(N3CCOCC3)c(CN3CCOCC3)c2)cc1-c1ccc2c(c1)CCNC2=O` [I-496, 6-(2-amino-6-fluoro-5-(4-morpholino-3-(morpholinomethyl)phenyl)pyridin-3-yl)-3,4-dihydroisoquinolin-1(2H)-one], 11 to 100 nM; under `Cc1c[nH]c(=O)c2ccc(-c3cc(-c4ccc(N5CCOCC5)c(CN(C)C)n4)c(F)nc3N)cc12` [I-588, 6-(6′-amino-6-((dimethylamino)methyl)-2′-fluoro-5-morpholino-[2,3′-bipyridin]-5′-yl)-4-methylisoquinolin-1(2H)-one], 0.1 to 10 nM.
Under `Nc1nc(F)c(-c2ccc(N3CCN(CCC(F)F)CC3)cc2)cc1-c1ccc2c(c1)CCNC2=O` [I-476, 6-(2-amino-5-(4-(4-(3,3-difluoropropyl)piperazin-1-yl)phenyl)-6-fluoropyridin-3-yl)-3,4-dihydroisoquinolin-1(2H)-one] stands 0.1 to 10 nM.
`Nc1nc(F)c(-c2ccc(C3=CCOCC3)cc2CO)cc1-c1cc2c(cc1F)C(=O)NCC2` [I-528, 6-(2-amino-5-(4-(3,6-dihydro-2H-pyran-4-yl)-2-(hydroxymethyl)phenyl)-6-fluoropyridin-3-yl)-7-fluoro-3,4-dihydroisoquinolin-1(2H)-one]: the IC50 was 101 to 1000 nM.
Next, `Nc1nc(F)c(-c2ccc(N3CCN(CC4CC4)CC3)cc2)cc1-c1cc(F)c2c(=O)[nH]cc(F)c2c1` [I-483, 6-(2-amino-5-(4-(4-(cyclopropylmethyl)piperazin-1-yl)phenyl)-6-fluoropyridin-3-yl)-4,8-difluoroisoquinolin-1(2H)-one]: 0.1 to 10 nM; `CC(C)N1CCN(c2ccc(-c3ccc(Nc4ccc5c(c4)CCNC5=O)nc3F)cc2)CC1` [I-639, 6-((6-fluoro-5-(4-(4-isoproylpiperazin-1-yl)phenyl)pyridin-2-yl)amino)-3,4-dihydroisoquinolin-1(2H)-one]: above 1000 nM; `CN(C)Cc1cc(-c2cc(-c3cc4c(cc3F)C(=O)NCC4)c(N)nc2F)ccc1F` [I-618, 6-(2-amino-5-(3-((dimethylamino)methyl)-4-fluorophenyl)-6-fluoropyridin-3-yl)-7-fluoro-3,4-dihydroisoquinolin-1(2H)-one]: 11 to 100 nM.
Under `C[C@@H]1CN(c2ccc(-c3cc(-c4cc(F)c5c(c4)CCNC5=O)c(N)nc3F)cc2CN(C)C)C[C@H](C)O1` [I-596, 6-(2-amino-5-(3-((dimethylamino)methyl)-4-((2R,6S)-2,6-dimethylmorpholino)phenyl)-6-fluoropyridin-3-yl)-8-fluoro-3,4-dihydroisoquinolin-1(2H)-one] stands 11 to 100 nM; under `Cc1c[nH]c(=O)c2cc(F)c(-c3cc(-c4ccc(N5CCN(C(C)C)CC5)cc4)c(F)nc3N)cc12` [I-577, 6-(2-amino-6-fluoro-5-(4-(4-isopropylpiperazin-1-yl)phenyl)pyridin-3-yl)-7-fluoro-4-methylisoquinolin-1(2H)-one], 0.1 to 10 nM.
Next, `Nc1nc(F)c(-c2ccc(C3CCOCC3)cc2C2CNC(=O)C2)cc1-c1cc2c(cc1F)C(=O)NCC2` (stereo not shown) [I-479, 6-(2-amino-6-fluoro-5-(2-(5-oxopyrrolidin-3-yl)-4-(tetrahydro-2H-pyran-4-yl)phenyl)pyridin-3-yl)-7-fluoro-3,4-dihydroisoquinolin-1(2H)-one]: above 1000 nM; `COC1CCN(Cc2cc(-c3cc(-c4ccc5c(c4)CCNC5=O)c(N)nc3F)ccc2OCC2CC2)CC1` [I-508, 6-(2-amino-5-(4-(cyclopropylmethoxy)-3-((4-methoxypiperidin-1-yl)methyl)phenyl)-6-fluoropyridin-3-yl)-3,4-dihydroisoquinolin-1(2H)-one]: 11 to 100 nM; `Cc1[nH]c(=O)c2c(F)cc(-c3cc(-c4ccc(N5CCN(CC6CC6)CC5)cc4)c(F)nc3N)cc2c1F` [I-529, 6-(2-amino-5-(4-(4-(cyclopropylmethyl)piperazin-1-yl)phenyl)-6-fluoropyridin-3-yl)-4,8-difluoro-3-methylisoquinolin-1(2H)-one]: 0.1 to 10 nM.
Turning to `Cc1[nH]c(=O)c2ccc(-c3cc(-c4ccc(N5CCN(C(C)C)CC5)cc4)c(F)nc3N)cc2c1Cl` [I-538, 6-(2-amino-6-fluoro-5-(4-(4-isopropylpiperazin-1-yl)phenyl)pyridin-3-yl)-4-chloro-3-methylisoquinolin-1(2H)-one], the IC50 lay within 0.1 to 10 nM.
Under `Cc1[nH]c(=O)c2ccc(-c3cc(-c4ccc(N5CCOCC5)c(CN(C)C)c4)c(F)nc3N)cc2c1F` [I-515, 6-(2-amino-5-(3-((dimethylamino)methyl)-4-morpholinophenyl)-6-fluoropyridin-3-yl)-4-fluoro-3-methylisoquinolin-1(2H)-one] stands 11 to 100 nM.
As to `CN(C)Cc1cc(-c2cc(-c3ccc4c(c3)CCNC4=O)c(N)nc2F)ccc1OCC1CC1` [I-506, 6-(2-amino-5-(4-(cyclopropylmethoxy)-3-((dimethylamino)methyl)phenyl)-6-fluoropyridin-3-yl)-3,4-dihydroisoquinolin-1(2H)-one], the IC50 fell in the range of 11 to 100 nM.
Under `Nc1nc(F)c(-c2ccc(N3CCN(CCCC(F)F)CC3)cc2)cc1-c1ccc2c(c1)CCNC2=O` [I-641, 6-(2-amino-5-(4-(4-(4,4-difluorobutyl)piperazin-1-yl)phenyl)-6-fluoropyridin-3-yl)-3,4-dihydroisoquinolin-1(2H)-one] stands 0.1 to 10 nM.
Take `Nc1nc(F)c(-c2ccc(C3=CCOCC3)cc2C2CNC(=O)C2)cc1-c1cc2c(cc1F)C(=O)NCC2` (stereo not shown) [I-478, 6-(2-amino-5-(4-(3,6-dihydro-2H-pyran-4-yl)-2-(5-oxopyrrolidin-3-yl)phenyl)-6-fluoropyridin-3-yl)-7-fluoro-3,4-dihydroisoquinolin-1(2H)-one]: the IC50 is above 1000 nM.
Next, `Nc1nc(F)c(-c2ccc(N3CCN(C4CCC4)CC3)cc2)cc1-c1ccc2c(=O)[nH]cc(F)c2c1` [I-546, 6-(2-amino-5-(4-(4-cyclobutylpiperazin-1-yl)phenyl)-6-fluoropyridin-3-yl)-4-fluoroisoquinolin-1(2H)-one]: 0.1 to 10 nM; `CN1CC2(CCN(c3ccc(-c4cc(-c5ccc6c(c5)CCNC6=O)c(N)nc4F)cc3)CC2)C1` [I-430, 6-(2-amino-6-fluoro-5-(4-(2-methyl-2,7-diazaspiro[3.5]nonan-7-yl)phenyl)pyridin-3-yl)-3,4-dihydroisoquinolin-1(2H)-one]: 0.1 to 10 nM; `CN(C)Cc1cc(-c2cc(-c3cc4c(cc3F)C(=O)NCC4)c(N)nc2F)ccc1OCC(F)F` [I-556, 6-(2-amino-5-(4-(2,2-difluoroethoxy)-3-((dimethylamino)methyl)phenyl)-6-fluoropyridin-3-yl)-7-fluoro-3,4-dihydroisoquinolin-1(2H)-one]: 11 to 100 nM.
`CN(C)Cc1cc(-c2cc(-c3cc4c(cc3F)C(=O)NCC4)c(N)nc2F)ccc1OCCCC(F)F` [I-525, 6-(2-amino-5-(4-(4,4-difluorobutoxy)-3-((dimethylamino)methyl)phenyl)-6-fluoropyridin-3-yl)-7-fluoro-3,4-dihydroisoquinolin-1(2H)-one]: the IC50 was in the range of 11 to 100 nM.
Under `CCN(C)Cc1nc(-c2cc(-c3cc4c(cc3F)C(=O)NCC4)c(N)nc2F)ccc1N1CCOCC1` [I-581, 6-(6′-amino-6-((ethyl(methyl)amino)methyl)-2′-fluoro-5-morpholino-[2,3′-bipyridin]-5′-yl)-7-fluoro-3,4-dihydroisoquinolin-1(2H)-one] stands 0.1 to 10 nM; under `Nc1nc(F)c(-c2ccc(N3CCOCC3)c(CN3CCCCC3)c2)cc1-c1cc2c(cc1F)C(=O)NCC2` [I-560, 6-(2-amino-6-fluoro-5-(4-morpholino-3-(piperidin-1-ylmethyl)phenyl)pyridin-3-yl)-7-fluoro-3,4-dihydroisoquinolin-1(2H)-one], 11 to 100 nM.
Next, `Cc1nc2cc(-c3cc(-c4ccc(N5CCN(CCCC(F)F)CC5)cc4)c(F)nc3N)cc(F)c2c(=O)[nH]1` [I-467, 7-(2-amino-5-(4-(4-(4,4-difluorobutyl)piperazin-1-yl)phenyl)-6-fluoropyridin-3-yl)-5-fluoro-2-methylquinazolin-4(3H)-one]: 0.1 to 10 nM.
